This assay has as its system P388 leukemia ip, CD2F1 mice, survival T/C. Kind of assay: NCI In Vivo Anticancer Drug Screen. Data for tumor model P388 Leukemia (intraperitoneal) in CD2F1 (CDF1) mice. The note with it: endpoint: median survival time, higher = longer survival. In short, it runs like this:
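Mice carrying the transplanted tumor received test compound or vehicle. Survival was recorded in each group, and the value is the treated-group measurement divided by that of the vehicle-treated control group.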

The mark [1] stands for this setting: dose: 25.0 mg/kg/injection, schedule: Q04DX003 (ip), vehicle: saline.
Setting [2] is: dose: 50.0 mg/kg/injection, schedule: Q01DX009 (ip), vehicle: Klucel (hydroxypropylcellulose) (HPC).
[3] abbreviates: dose: 100.0 mg/kg/injection, schedule: Q01DX009 (ip), vehicle: Klucel (hydroxypropylcellulose) (HPC).
Setting [4] is: dose: 200.0 mg/kg/injection, schedule: Q01DX009 (ip), vehicle: Klucel (hydroxypropylcellulose) (HPC).
Setting [5] is: dose: 25.0 mg/kg/injection, schedule: Q01DX009 (ip), vehicle: other.
Where [6] appears, read: dose: 50.0 mg/kg/injection, schedule: Q01DX009 (ip), vehicle: other.
Setting [7] is: dose: 100.0 mg/kg/injection, schedule: Q01DX009 (ip), vehicle: other.
The mark [8] stands for this setting: dose: 200.0 mg/kg/injection, schedule: Q01DX009 (ip), vehicle: other.
Where [9] appears, read: dose: 400.0 mg/kg/injection, schedule: Q01DX009 (ip), vehicle: other.
Setting [10] is: dose: 50.0 mg/kg/injection, schedule: Q04DX003 (ip), vehicle: saline with Tween-80.
The mark [11] stands for this setting: dose: 100.0 mg/kg/injection, schedule: Q04DX003 (ip), vehicle: saline with Tween-80.
Where [12] appears, read: dose: 100.0 mg/kg/injection, schedule: Q04DX003 (ip), vehicle: saline.
The mark [13] stands for this setting: dose: 200.0 mg/kg/injection, schedule: Q04DX003 (ip), vehicle: saline.

Several values for one entry are separate records, joined by “and”; a condition that tells them apart may be missing. Equal entries are not always repeated. Toxic doses and inconclusive results are not listed.

As to `COc1cccc2c1C(=O)c1c(O)c3c(c(O)c1C2=O)C[C@@](O)(C(=O)CO)C[C@@H]3OC1CC(NC(=O)C(N)CC(C)C)C(O)C(C)O1` (stereo partly drawn), the T/C by setting is: (dose: 3.12 mg/kg/injection, schedule: Q04DX003 (ip), vehicle: saline) 105 % of control; (dose: 6.25 mg/kg/injection, schedule: Q04DX003 (ip), vehicle: saline) 118 % of control; under setting [1], 150 % of control.

As for `CC(C)(C)c1cc(C2C(C#N)C(=O)NC(=O)C2C#N)cc(C(C)(C)C)c1O` (stereo not drawn), the T/C under setting [2] is 103 % of control, the T/C under setting [3] was 100 % of control and the T/C under setting [4] was 94 % of control.

For the molecule `Cc1ccc(N2C(=O)CSC2=S)cc1Cl`, the T/C reads like this: (dose: 50.0 mg/kg/injection, schedule: Q01DX009 (ip), vehicle: saline) 103 % of control; (dose: 100.0 mg/kg/injection, schedule: Q01DX009 (ip), vehicle: saline) 94 % of control; (dose: 200.0 mg/kg/injection, schedule: Q01DX009 (ip), vehicle: saline) 100 % of control.

As for `COC(=O)CCCCCCCCCCCCCCCCC(=O)O`, the T/C is 99 % of control under setting [2], 94 % of control under setting [3] and 93 % of control under setting [4].

As to `CP(=O)(N/N=C\C(=O)O)c1ccccc1` (stereo not drawn), the T/C reads like this: (dose: 12.5 mg/kg/injection, schedule: Q01DX009 (ip), vehicle: other) 99 % of control; under setting [5], 91 % of control; under setting [6], 100 % of control; under setting [7], 97 % of control; under setting [8], 98 % of control; under setting [9], 97 % of control.

For the molecule `CN1CCCN(C)C1c1cc([N+](=O)[O-])ccc1O`, the T/C (dose: 6.25 mg/kg/injection, schedule: Q01DX009 (ip), vehicle: saline sonified) was 100 % of control; the T/C (dose: 12.5 mg/kg/injection, schedule: Q01DX009 (ip), vehicle: saline sonified) was 100 % of control; the T/C (dose: 25.0 mg/kg/injection, schedule: Q01DX009 (ip), vehicle: saline sonified) was 100 % of control.

With `CN1CCN(c2cc3nc[nH]c(=O)c3cc2[N+](=O)[O-])CC1`, the T/C by setting is: (dose: 50.0 mg/kg/injection, schedule: Q04DX003 (ip), vehicle: Klucel (hydroxypropylcellulose) (HPC)) 99 % of control; (dose: 100.0 mg/kg/injection, schedule: Q04DX003 (ip), vehicle: Klucel (hydroxypropylcellulose) (HPC)) 104 % of control.

As for `C1=CC2C1C1OC1C1OC21` (stereo not drawn), the T/C (dose: 100.0 mg/kg/injection, schedule: Q04DX002 (ip), vehicle: saline with Tween-80) is 101 % of control; the T/C (dose: 200.0 mg/kg/injection, schedule: Q04DX002 (ip), vehicle: saline with Tween-80) was 100 % of control; the T/C (dose: 400.0 mg/kg/injection, schedule: Q04DX002 (ip), vehicle: saline with Tween-80) was 101 % of control.

Consider `CCCCNc1nc(SC)nc2nc[nH]c12`, for which the T/C is 100 % of control under setting [10]; 98 % of control under setting [11]; 96 % of control (dose: 200.0 mg/kg/injection, schedule: Q04DX003 (ip), vehicle: saline with Tween-80); 95 % of control (dose: 400.0 mg/kg/injection, schedule: Q04DX003 (ip), vehicle: saline with Tween-80).

Consider `CC12CCC/C(=N\NC(N)=S)C1C(=O)NC(=O)C2` (stereo not drawn), for which the T/C is, setting by setting: (dose: 50.0 mg/kg/injection, schedule: Q01DX005 (ip), vehicle: saline with Tween-80) 99 % of control; (dose: 100.0 mg/kg/injection, schedule: Q01DX005 (ip), vehicle: saline with Tween-80) 96 % of control; (dose: 200.0 mg/kg/injection, schedule: Q01DX005 (ip), vehicle: saline with Tween-80) 97 % of control.

Consider `CC1CC(C)(C)N=C(C(C)C)O1` (stereo not drawn), for which the T/C is, setting by setting: (dose: 25.0 mg/kg/injection, schedule: Q04DX003 (ip), vehicle: saline with Tween-80) 109 % of control; under setting [10], 100 % of control; under setting [11], 100 % of control.

With `CC(C)C12CCC3(CCC4C(C)(C(=O)O)CCCC4(C)C3C1)C(CN)C2` (stereo not drawn), the T/C is 101 % of control (dose: 25.0 mg/kg/injection, schedule: Q01DX005 (ip), vehicle: Klucel (hydroxypropylcellulose) (HPC)); 106 % of control (dose: 50.0 mg/kg/injection, schedule: Q01DX005 (ip), vehicle: Klucel (hydroxypropylcellulose) (HPC)); 99 % of control (dose: 100.0 mg/kg/injection, schedule: Q01DX005 (ip), vehicle: Klucel (hydroxypropylcellulose) (HPC)); 100 % of control (dose: 200.0 mg/kg/injection, schedule: Q01DX005 (ip), vehicle: Klucel (hydroxypropylcellulose) (HPC)).

Turning to `C1CCC2C(C1)CC[N-]C2CCC1[N-]CCC2CCCCC21.C1CCC2C(C1)CC[N-]C2CCC1[N-]CCC2CCCCC21.[Ni+2].[O-][Cl+3]([O-])([O-])O` (stereo not drawn), the T/C is, setting by setting: (dose: 25.0 mg/kg/injection, schedule: Q01DX001 (ip), vehicle: saline) 100 % of control; (dose: 50.0 mg/kg/injection, schedule: Q01DX001 (ip), vehicle: saline) 100 % of control and 101 % of control; (dose: 100.0 mg/kg/injection, schedule: Q01DX001 (ip), vehicle: saline) 101 % of control and 108 % of control and 97 % of control; (dose: 200.0 mg/kg/injection, schedule: Q01DX001 (ip), vehicle: saline) 98 % of control and 100 % of control.

On to `CN1CCC2CC1c1ccn(C)c1C2=O` (stereo not drawn), for which the T/C (dose: 7.5 mg/kg/injection, schedule: Q01DX005 (ip), vehicle: saline) was 93 % of control; the T/C (dose: 15.0 mg/kg/injection, schedule: Q01DX005 (ip), vehicle: saline) is 96 % of control; the T/C (dose: 30.0 mg/kg/injection, schedule: Q01DX005 (ip), vehicle: saline) is 106 % of control.

For the molecule `O=C(O)CCNS(=O)(=O)c1ccc2c(c1)-c1ccccc1C2`, the T/C was 92 % of control (dose: 25.0 mg/kg/injection, schedule: Q01DX009 (ip), vehicle: saline with Tween-80); 102 % of control and 104 % of control and 97 % of control (dose: 50.0 mg/kg/injection, schedule: Q01DX009 (ip), vehicle: saline with Tween-80); 101 % of control and 107 % of control and 98 % of control (dose: 100.0 mg/kg/injection, schedule: Q01DX009 (ip), vehicle: saline with Tween-80); 102 % of control and 124 % of control (dose: 200.0 mg/kg/injection, schedule: Q01DX009 (ip), vehicle: saline with Tween-80).

Regarding `Cc1ccc(S(=O)(=O)OC2CCN(C)CC2)cc1`, the T/C was 113 % of control under setting [1]; 102 % of control (dose: 50.0 mg/kg/injection, schedule: Q04DX003 (ip), vehicle: saline); 99 % of control under setting [12]; 104 % of control under setting [13].

`CCN(CC)P(Cl)(C1=C(Cl)C(=O)C(C#N)=C(C#N)C1=O)(N(CC)CC)N(CC)CC`: the T/C is 89 % of control (dose: 100.0 mg/kg/injection, schedule: Q01DX001 (ip), vehicle: saline with Tween-80) and 89 % of control (dose: 400.0 mg/kg/injection, schedule: Q01DX001 (ip), vehicle: saline with Tween-80).

For the molecule `C=C(C)C(=O)OC1CC2OC2(C)CC(OC(=O)C(=C)C)C2C(=C)C(=O)OC2/C=C\1C` (stereo not drawn), the T/C by setting is: (dose: 5.0 mg/kg/injection, schedule: Q01DX009 (ip), vehicle: saline with Tween-80) 90 % of control; (dose: 10.0 mg/kg/injection, schedule: Q01DX009 (ip), vehicle: saline with Tween-80) 90 % of control; (dose: 20.0 mg/kg/injection, schedule: Q01DX009 (ip), vehicle: saline with Tween-80) 100 % of control; (dose: 40.0 mg/kg/injection, schedule: Q01DX009 (ip), vehicle: saline with Tween-80) 86 % of control.

As to `Cc1cc(O)cc(=O)n1CCc1ccccc1`, the T/C by setting is: (dose: 60.0 mg/kg/injection, schedule: Q01DX005 (ip), vehicle: Klucel (hydroxypropylcellulose) (HPC)) 88 % of control; (dose: 120.0 mg/kg/injection, schedule: Q01DX005 (ip), vehicle: Klucel (hydroxypropylcellulose) (HPC)) 94 % of control; (dose: 240.0 mg/kg/injection, schedule: Q01DX005 (ip), vehicle: Klucel (hydroxypropylcellulose) (HPC)) 96 % of control.

`COc1ccc(CSC(=S)Nc2ccc(F)c(C)c2)cc1`: the T/C was 99 % of control (dose: 50.0 mg/kg/injection, schedule: Q01DX009 (ip), vehicle: suspension in saline) and 99 % of control (dose: 100.0 mg/kg/injection, schedule: Q01DX009 (ip), vehicle: suspension in saline).

For `C[N+]1=C(c2ccc(Br)cc2)OCC1(C)C`, the T/C was 104 % of control under setting [5]; 101 % of control under setting [6]; 97 % of control under setting [7]; 101 % of control under setting [8]; 101 % of control under setting [9].

For `O=C(CCl)NCc1ccccc1`, the T/C reads like this: under setting [12], 98 % of control; under setting [13], 100 % of control.

The values are drawn from PubChem BioAssay AID330 (DTP/NCI, 2004).
